{
  "source": "PubChem BioAssay (NCI)",
  "assay_in_all_cases": "inhibition of tumour cell growth, NCI panel, 48 h",
  "key": {"IGROV1 ovarian": {"system": "IGROV1 ovarian"}, "MOLT-4 leukemia": {"system": "MOLT-4 leukemia"}, "OVCAR-8 ovarian": {"system": "OVCAR-8 ovarian"}, "BT-549 breast": {"system": "BT-549 breast"}, "KM12 colon": {"system": "KM12 colon"}, "RPMI-8226 leukemia": {"system": "RPMI-8226 leukemia"}, "ACHN renal": {"system": "ACHN renal"}, "SF-268 CNS": {"system": "SF-268 CNS"}, "SR leukemia": {"system": "SR leukemia"}, "TK-10 renal": {"system": "TK-10 renal"}, "NCI-H226 lung": {"system": "NCI-H226 lung"}, "HS 578T breast": {"system": "HS 578T breast"}, "MDA-MB-231 breast": {"system": "MDA-MB-231 breast"}, "M14 melanoma": {"system": "M14 melanoma"}, "CAKI-1 renal": {"system": "CAKI-1 renal"}, "SF-539 CNS": {"system": "SF-539 CNS"}, "MALME-3M melanoma": {"system": "MALME-3M melanoma"}, "PC-3 prostate": {"system": "PC-3 prostate"}, "SNB-75 CNS": {"system": "SNB-75 CNS"}, "K-562 leukemia": {"system": "K-562 leukemia"}, "NCI/ADR-RES ovarian": {"system": "NCI/ADR-RES ovarian"}, "A498 renal": {"system": "A498 renal"}, "UACC-62 melanoma": {"system": "UACC-62 melanoma"}, "UO-31 renal": {"system": "UO-31 renal"}, "HOP-62 NSCLC": {"system": "HOP-62 NSCLC"}, "MDA-MB-435": {"system": "MDA-MB-435"}, "U251 CNS": {"system": "U251 CNS"}, "NCI-H522 lung": {"system": "NCI-H522 lung"}, "SK-OV-3 ovarian": {"system": "SK-OV-3 ovarian"}},
  "note": "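Grown in 96-well plates, cells were treated for 48 hours with each compound at five concentrations. Insufficient inhibition: endpoint recorded as highest concentration tested. Abbreviation: GI50, concentration required for 50% inhibition of growth. TGI: concentration producing complete growth inhibition.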",
  "data": [
    {"smiles": "CC(C)(C)Nc1nc2c(OCCc3ccccc3)cccn2c1-c1ccccc1Cl", "values": [
      {"measurement": "GI50", "setting": "IGROV1 ovarian", "value": 5.05, "unit": "µM"},
      {"measurement": "TGI", "setting": "IGROV1 ovarian", "value": 17.8, "unit": "µM"},
      {"measurement": "GI50", "setting": "MOLT-4 leukemia", "value": 3.63, "unit": "µM"},
      {"measurement": "TGI", "setting": "MOLT-4 leukemia", "value": 17, "unit": "µM"},
      {"measurement": "GI50", "setting": "OVCAR-8 ovarian", "value": 4.36, "unit": "µM"},
      {"measurement": "TGI", "setting": "OVCAR-8 ovarian", "value": 20, "unit": "µM"},
      {"measurement": "GI50", "setting": "BT-549 breast", "value": 2.61, "unit": "µM"},
      {"measurement": "TGI", "setting": "BT-549 breast", "value": 10.2, "unit": "µM"},
      {"measurement": "GI50", "setting": "KM12 colon", "value": 3.58, "unit": "µM"},
      {"measurement": "TGI", "setting": "KM12 colon", "value": 12.4, "unit": "µM"},
      {"measurement": "GI50", "setting": "RPMI-8226 leukemia", "value": 2.78, "unit": "µM"},
      {"measurement": "TGI", "setting": "RPMI-8226 leukemia", "value": 7.5, "unit": "µM"},
      {"measurement": "GI50", "setting": "ACHN renal", "value": 8.82, "unit": "µM"},
      {"measurement": "TGI", "setting": "ACHN renal", "value": 21, "unit": "µM"},
      {"measurement": "GI50", "setting": "SF-268 CNS", "value": 4.52, "unit": "µM"},
      {"measurement": "TGI", "setting": "SF-268 CNS", "value": 18.8, "unit": "µM"},
      {"measurement": "GI50", "setting": "SR leukemia", "value": 3.89, "unit": "µM"},
      {"measurement": "TGI", "setting": "SR leukemia", "value": 43.4, "unit": "µM"},
      {"measurement": "GI50", "setting": "TK-10 renal", "value": 6.49, "unit": "µM"},
      {"measurement": "TGI", "setting": "TK-10 renal", "value": 20.4, "unit": "µM"},
      {"measurement": "GI50", "setting": "NCI-H226 lung", "value": 3.52, "unit": "µM"},
      {"measurement": "TGI", "setting": "NCI-H226 lung", "value": 16.6, "unit": "µM"},
      {"measurement": "GI50", "setting": "HS 578T breast", "value": 4.05, "unit": "µM"},
      {"measurement": "TGI", "setting": "HS 578T breast", "value": 21.4, "unit": "µM"},
      {"measurement": "GI50", "setting": "MDA-MB-231 breast", "value": 5.95, "unit": "µM"},
      {"measurement": "TGI", "setting": "MDA-MB-231 breast", "value": 19, "unit": "µM"},
      {"measurement": "GI50", "setting": "M14 melanoma", "value": 3.9, "unit": "µM"},
      {"measurement": "TGI", "setting": "M14 melanoma", "value": 15.3, "unit": "µM"},
      {"measurement": "GI50", "setting": "CAKI-1 renal", "value": 5.89, "unit": "µM"},
      {"measurement": "TGI", "setting": "CAKI-1 renal", "value": 20.2, "unit": "µM"},
      {"measurement": "GI50", "setting": "SF-539 CNS", "value": 10.7, "unit": "µM"},
      {"measurement": "TGI", "setting": "SF-539 CNS", "value": 22.5, "unit": "µM"},
      {"measurement": "GI50", "setting": "MALME-3M melanoma", "value": 2.23, "unit": "µM"},
      {"measurement": "TGI", "setting": "MALME-3M melanoma", "value": 5.52, "unit": "µM"},
      {"measurement": "GI50", "setting": "PC-3 prostate", "value": 3.37, "unit": "µM"},
      {"measurement": "TGI", "setting": "PC-3 prostate", "value": 15.5, "unit": "µM"},
      {"measurement": "GI50", "setting": "SNB-75 CNS", "value": 1.58, "unit": "µM"},
      {"measurement": "TGI", "setting": "SNB-75 CNS", "value": 13.9, "unit": "µM"},
      {"measurement": "GI50", "setting": "K-562 leukemia", "value": 3.25, "unit": "µM"},
      {"measurement": "TGI", "setting": "K-562 leukemia", "value": 18.1, "unit": "µM"},
      {"measurement": "GI50", "setting": "NCI/ADR-RES ovarian", "value": 6.4, "unit": "µM"},
      {"measurement": "TGI", "setting": "NCI/ADR-RES ovarian", "value": 20.5, "unit": "µM"},
      {"measurement": "GI50", "setting": "A498 renal", "value": 11.8, "unit": "µM"},
      {"measurement": "TGI", "setting": "A498 renal", "value": 24.3, "unit": "µM"},
      {"measurement": "GI50", "setting": "UACC-62 melanoma", "value": 2.22, "unit": "µM"},
      {"measurement": "TGI", "setting": "UACC-62 melanoma", "value": 6.55, "unit": "µM"},
      {"measurement": "GI50", "setting": "UO-31 renal", "value": 3.2, "unit": "µM"},
      {"measurement": "TGI", "setting": "UO-31 renal", "value": 16.8, "unit": "µM"},
      {"measurement": "GI50", "setting": "HOP-62 NSCLC", "value": 4.82, "unit": "µM"},
      {"measurement": "TGI", "setting": "HOP-62 NSCLC", "value": 18.9, "unit": "µM"},
      {"measurement": "GI50", "setting": "MDA-MB-435", "value": 3.29, "unit": "µM"},
      {"measurement": "TGI", "setting": "MDA-MB-435", "value": 11.2, "unit": "µM"},
      {"measurement": "GI50", "setting": "U251 CNS", "value": 3.14, "unit": "µM"},
      {"measurement": "TGI", "setting": "U251 CNS", "value": 12.5, "unit": "µM"},
      {"measurement": "GI50", "setting": "NCI-H522 lung", "value": 3.75, "unit": "µM"},
      {"measurement": "TGI", "setting": "NCI-H522 lung", "value": 15.3, "unit": "µM"},
      {"measurement": "GI50", "setting": "SK-OV-3 ovarian", "value": 3.82, "unit": "µM"},
      {"measurement": "TGI", "setting": "SK-OV-3 ovarian", "value": 16.9, "unit": "µM"}
    ]}
  ]
}
